Test results as given in PubChem BioAssay AID200 (DTP/NCI, 2004).
Where “and” joins values, the source holds several entries; their conditions need not be identical. Identical values can stand only once. Toxic doses and inconclusive results are not listed.

Tested on: B6C3F1 mice, B16 melanoma ip, median survival T/C
Test: NCI In Vivo Anticancer Drug Screen. Data for tumor model B16 Melanoma (intraperitoneal) in B6C3F1 mice
Settings: endpoint: median survival time, higher = longer survival
Method in brief: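 Mice bearing transplanted tumor were dosed with compound or vehicle, and survival was recorded. Activity is expressed as the treated-group measurement (T) divided by the vehicle control measurement (C).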

[1] = dose: 6.25 mg/kg/injection, schedule: Q01DX009 (ip), vehicle: saline with Tween-80
[2] = dose: 25.0 mg/kg/injection, schedule: Q01DX009 (ip), vehicle: saline with Tween-80
[3] = dose: 12.5 mg/kg/injection, schedule: Q01DX009 (ip), vehicle: water
[4] = dose: 1.56 mg/kg/injection, schedule: Q01DX009 (ip), vehicle: saline
[5] = dose: 3.12 mg/kg/injection, schedule: Q01DX009 (ip), vehicle: saline
[6] = dose: 6.25 mg/kg/injection, schedule: Q01DX009 (ip), vehicle: saline
[7] = dose: 12.5 mg/kg/injection, schedule: Q01DX009 (ip), vehicle: saline
[8] = dose: 25.0 mg/kg/injection, schedule: Q01DX009 (ip), vehicle: saline
[9] = dose: 25.0 mg/kg/injection, schedule: Q01DX009 (ip), vehicle: water
[10] = dose: 50.0 mg/kg/injection, schedule: Q01DX009 (ip), vehicle: water
[11] = dose: 100.0 mg/kg/injection, schedule: Q01DX009 (ip), vehicle: water
[12] = dose: 200.0 mg/kg/injection, schedule: Q01DX009 (ip), vehicle: water
[13] = dose: 25.0 mg/kg/injection, schedule: Q01DX009 (ip), vehicle: suspension in saline
[14] = dose: 50.0 mg/kg/injection, schedule: Q01DX009 (ip), vehicle: suspension in saline
[15] = dose: 100.0 mg/kg/injection, schedule: Q01DX009 (ip), vehicle: suspension in saline
[16] = dose: 50.0 mg/kg/injection, schedule: Q01DX009 (ip), vehicle: saline
[17] = dose: 12.5 mg/kg/injection, schedule: Q01DX009 (ip), vehicle: Klucel (hydroxypropylcellulose) (HPC)
[18] = dose: 25.0 mg/kg/injection, schedule: Q01DX009 (ip), vehicle: Klucel (hydroxypropylcellulose) (HPC)
[19] = dose: 100.0 mg/kg/injection, schedule: Q01DX009 (ip), vehicle: saline
[20] = dose: 50.0 mg/kg/injection, schedule: Q01DX009 (ip), vehicle: Klucel (hydroxypropylcellulose) (HPC)
[21] = dose: 100.0 mg/kg/injection, schedule: Q01DX009 (ip), vehicle: Klucel (hydroxypropylcellulose) (HPC)
[22] = dose: 200.0 mg/kg/injection, schedule: Q01DX009 (ip), vehicle: Klucel (hydroxypropylcellulose) (HPC)
[23] = dose: 400.0 mg/kg/injection, schedule: Q01DX009 (ip), vehicle: Klucel (hydroxypropylcellulose) (HPC)
[24] = dose: 50.0 mg/kg/injection, schedule: Q01DX009 (ip), vehicle: saline with Tween-80
[25] = dose: 100.0 mg/kg/injection, schedule: Q01DX009 (ip), vehicle: saline with Tween-80
[26] = dose: 200.0 mg/kg/injection, schedule: Q01DX009 (ip), vehicle: saline with Tween-80

With O=C1c2cccc3cc([N+](=O)[O-])cc(c23)C(=O)N1CCN1CCCC1 the T/C [1] was 122 % of control and the T/C [2] was 108 % of control.
For O=NN(CCCl)C(=O)NCCO, the T/C (dose: 1.5 mg/kg/injection, schedule: Q01DX009 (ip), vehicle: water) was 102 % of control, the T/C (dose: 1.56 mg/kg/injection, schedule: Q01DX009 (ip), vehicle: water) was 122 % of control and the T/C (dose: 3.0 mg/kg/injection, schedule: Q01DX009 (ip), vehicle: water) was 104 % of control. For the same molecule, the T/C (dose: 3.12 mg/kg/injection, schedule: Q01DX009 (ip), vehicle: water) was 189 % of control, the T/C (dose: 6.0 mg/kg/injection, schedule: Q01DX009 (ip), vehicle: water) was 105 % of control and the T/C (dose: 6.25 mg/kg/injection, schedule: Q01DX009 (ip), vehicle: water) was 201 % of control. For the same molecule, the T/C (dose: 12.0 mg/kg/injection, schedule: Q01DX009 (ip), vehicle: water) was 109 % of control and the T/C [3] was 194 % of control.
OCCN1CCN(CC/C=C2/c3ccccc3Sc3ccc(Cl)cc32)CC1 was tested, and the T/C [4] was 101 % of control, the T/C [5] was 102 % of control and the T/C [6] was 103 % of control and 105 % of control. For the same molecule, the T/C [7] was 93 % of control and 106 % of control and the T/C [8] was 100 % of control.
In the case of CC1=C[S+](c2ccccc2)c2cccc3cc4ccccc4c1c23 (centres undefined), the T/C (dose: 0.06 mg/kg/injection, schedule: Q01DX009 (ip), vehicle: saline with Tween-80) is reported as 106 % of control, the T/C (dose: 0.12 mg/kg/injection, schedule: Q01DX009 (ip), vehicle: saline with Tween-80) is reported as 103 % of control and the T/C (dose: 0.25 mg/kg/injection, schedule: Q01DX009 (ip), vehicle: saline with Tween-80) is reported as 115 % of control. For the same molecule, the T/C (dose: 0.5 mg/kg/injection, schedule: Q01DX009 (ip), vehicle: saline with Tween-80) was 100 % of control, the T/C (dose: 1.0 mg/kg/injection, schedule: Q01DX009 (ip), vehicle: saline with Tween-80) was 111 % of control and the T/C (dose: 2.0 mg/kg/injection, schedule: Q01DX009 (ip), vehicle: saline with Tween-80) was 112 % of control and 106 % of control.
In the case of Cc1c(CNc2ccc(C(=O)NC(CC(=O)O)C(=O)O)cc2)ccc2nc(N)nc(N)c12 (centres undefined), the T/C (dose: 0.18 mg/kg/injection, schedule: Q01DX009 (ip), vehicle: saline with Tween-80) is reported as 90 % of control.
In the case of CO[C@@]12[C@@H]3N[C@@H]3CN1C1=C(C(=O)C(NCc3ccco3)=C(C)C1=O)[C@@H]2COC(N)=O, the T/C (dose: 4.5 mg/kg/injection, schedule: Q01DX001 (ip), vehicle: distilled water + Tween-80) is reported as 170 % of control, the T/C (dose: 9.0 mg/kg/injection, schedule: Q01DX001 (ip), vehicle: distilled water + Tween-80) is reported as 186 % of control and the T/C (dose: 18.0 mg/kg/injection, schedule: Q01DX001 (ip), vehicle: distilled water + Tween-80) is reported as 219 % of control. For the same molecule, the T/C (dose: 36.0 mg/kg/injection, schedule: Q01DX001 (ip), vehicle: distilled water + Tween-80) was 247 % of control.
O=P(O)(NCCCl)NCCCl was tested, and the T/C (dose: 25.0 mg/kg/injection, schedule: Q01DX001 (ip), vehicle: saline with Tween-80) was 114 % of control and 119 % of control, the T/C (dose: 50.0 mg/kg/injection, schedule: Q01DX001 (ip), vehicle: saline with Tween-80) was 115 % of control and the T/C (dose: 100.0 mg/kg/injection, schedule: Q01DX001 (ip), vehicle: saline with Tween-80) was 159 % of control and 161 % of control. The T/C (dose: 200.0 mg/kg/injection, schedule: Q01DX001 (ip), vehicle: saline with Tween-80) was 168 % of control and 182 % of control.
In the case of O=C(NO)c1cc(O)c(O)c(O)c1, the T/C [9] is reported as 100 % of control, the T/C [10] is reported as 105 % of control and the T/C [11] is reported as 114 % of control. The T/C [12] was 118 % of control.
In the case of O=c1[nH]cnc2[nH]ncc12, the T/C (dose: 12.5 mg/kg/injection, schedule: Q01DX009 (ip), vehicle: suspension in saline) is reported as 103 % of control, the T/C [13] is reported as 112 % of control and the T/C [14] is reported as 97 % of control. The T/C [15] was 88 % of control.
With O=C(O)C(O)C(O)C1[O][Sb][O]C1C(=O)O (centres undefined) the T/C [6] was 96 % of control, the T/C [7] was 97 % of control and the T/C [8] was 104 % of control. The T/C [16] was 107 % of control.
For S=C(N/N=C1/CCCC/C1=N/NC(=S)N1CCOCC1)N1CCOCC1, the T/C (dose: 1.56 mg/kg/injection, schedule: Q01DX009 (ip), vehicle: saline with Tween-80) was 124 % of control, the T/C (dose: 3.12 mg/kg/injection, schedule: Q01DX009 (ip), vehicle: saline with Tween-80) was 116 % of control and the T/C [1] was 119 % of control.
CCN(CC)c1ccc2cc(-c3nc4ccccc4n3C)c(=O)oc2c1 was tested, and the T/C (dose: 6.25 mg/kg/injection, schedule: Q01DX009 (ip), vehicle: Klucel (hydroxypropylcellulose) (HPC)) was 94 % of control and 101 % of control, the T/C [17] was 102 % of control and 106 % of control and the T/C [18] was 108 % of control and 111 % of control.
For O=c1[nH]c(=O)c2nc(-c3cccnc3)cnc2[nH]1, the T/C [7] was 92 % of control, the T/C [8] was 98 % of control and the T/C [16] was 95 % of control. The T/C [19] was 92 % of control.
CN(C)N=Nc1cn[nH]c1C(N)=O was tested, and the T/C [17] was 98 % of control, the T/C [18] was 91 % of control and the T/C [20] was 96 % of control. The T/C [21] was 87 % of control, the T/C [22] was 89 % of control and the T/C [23] was 86 % of control.
For CC(=O)NCCCCCCNC(C)=O, the T/C [8] was 108 % of control, the T/C [16] was 97 % of control and the T/C [19] was 106 % of control. The T/C (dose: 200.0 mg/kg/injection, schedule: Q01DX009 (ip), vehicle: saline) was 106 % of control and the T/C (dose: 800.0 mg/kg/injection, schedule: Q01DX009 (ip), vehicle: saline) was 179 % of control.
For O=C1NC(=O)C2(CCC(C3CCCCC3)CC2)N1 (centres undefined), the T/C [20] was 87 % of control, the T/C [21] was 89 % of control and the T/C [22] was 89 % of control.
For Brc1c(NC2=NCCN2)ccc2nccnc12, the T/C [4] was 100 % of control, the T/C [5] was 96 % of control and the T/C [6] was 102 % of control. The T/C [7] was 94 % of control and 106 % of control, the T/C [8] was 109 % of control and 102 % of control and the T/C [16] was 112 % of control and 104 % of control.
In the case of NC(C(=O)O)c1ccc(CBr)cc1 (centres undefined), the T/C (dose: 6.0 mg/kg/injection, schedule: Q01DX009 (ip), vehicle: saline with Tween-80) is reported as 114 % of control, the T/C [1] is reported as 111 % of control and the T/C [2] is reported as 159 % of control. The T/C [24] was 155 % of control and 165 % of control and the T/C [25] was 150 % of control and 183 % of control.
For O=C1c2ccccc2C(=O)c2c3c(cc(NCCNCCO)c21)N(CCO)CCN3, the T/C (dose: 25.0 mg/kg/injection, schedule: Q01DX009 (ip), vehicle: DMSO) was 108 % of control, the T/C (dose: 50.0 mg/kg/injection, schedule: Q01DX009 (ip), vehicle: DMSO) was 112 % of control and the T/C (dose: 100.0 mg/kg/injection, schedule: Q01DX009 (ip), vehicle: DMSO) was 167 % of control.
In the case of O=C1CC2(C(=O)N1CN1CCOCC1)c1ccccc1-c1ccccc12, the T/C [21] is reported as 93 % of control, the T/C [22] is reported as 98 % of control and the T/C [23] is reported as 93 % of control.
O=C(O)C1CC(c2ccccc2)=NN1c1ccccc1 (centres undefined) was tested, and the T/C [3] was 113 % of control, the T/C [9] was 120 % of control and the T/C [10] was 107 % of control. For the same molecule, the T/C [11] was 103 % of control and the T/C [12] was 110 % of control.
For Cc1cn(C2CC3[O][Sn]([c]4ccccc4)([c]4ccccc4)[O]CC3O2)c(=O)[nH]c1=O (centres undefined), the T/C [13] was 102 % of control, the T/C [14] was 103 % of control and the T/C [15] was 113 % of control. The T/C (dose: 200.0 mg/kg/injection, schedule: Q01DX009 (ip), vehicle: suspension in saline) was 93 % of control.
In the case of Cc1ccc2c(c1)n([O-])c1cc(Cl)ccc1[n+]2=O, the T/C (dose: 12.5 mg/kg/injection, schedule: Q01DX009 (ip), vehicle: saline with Tween-80) is reported as 105 % of control, the T/C [2] is reported as 101 % of control and the T/C [24] is reported as 122 % of control. The T/C [26] was 111 % of control.
With Nc1cc(=O)[nH][nH]1 the T/C [25] was 91 % of control, the T/C [26] was 96 % of control and the T/C (dose: 400.0 mg/kg/injection, schedule: Q01DX009 (ip), vehicle: saline with Tween-80) was 98 % of control.
